Reference: US10548894B2, “Combination therapy” (Array BioPharma Inc., priority 2013, dated 2020)

Key:
Assay in all cases: Microscopy imaging assay (viable nuclei count), 72 h
Format in all cases: cell-based
[1] = tested on: A-375 cells expressing mutant NRASQ61K; conditions: Homo sapiens, A-375 NRASQ61K, single agent
Method: (§1) Compound stocks are prepared in DMSO at a final concentration of 10 mM. Working stocks are serially diluted in the appropriate cell culture medium in 3-fold increments to achieve final assay concentrations ranging from 2.7 μM to 1.2 nM.
(§2) A-375 and WM-266-4 cells were purchased from American Type Culture Collection (ATCC). The A-375 cells were cultured in DMEM medium (ATCC) and the WM-266-4 cells were cultured in EMEM medium (ATCC) both supplemented with 10% fetal bovine serum (Gibco) and incubated at 37° C./5% CO2. The cell lines engineered to express commonly occurring alleles indicative of resistance were acquired from Novartis-Emeryville. These resistant models include, A-375 cells expressing mutant MEK1P124L, truncated p61-BRAFV600E, or mutant NRASQ61K, and WM-266-4 cells expressing mutant MEK1C121S, truncated p61-BRAFV600E, or mutant NRASQ61K. These cells were cultured in the appropriate parental medium with selection marker G418 and in the presence of 5 uM LFE158 (MEK mutants) or LIH720 (truncated p61-BRAFV600E).
(§3) For screening, cells were seeded in 80 ul of medium in 384-well plates (Thermo Scientific, cat#4332) at 500 (A-375) or 750 (WM-266-4) cell densities per well using a MultiDrop Combi (Thermo-Fisher) with an 8-channel standard cassette. To promote an even distribution of cells across the entire well, cells were briefly centrifuged at 1000 RPM and incubated at room temperature 30 minutes. All plates were incubated at 37° C., 5% CO2 for 24 h prior to compound addition. Compound stock was freshly prepared in the appropriate culture medium, and added using a PAA robot equipped with a 200n1 pin tool. In a minimum of three replicate wells, single agent and combination effects after 72 hours, were assessed by both quantification of cellular ATP levels via Cell Titer Glo (Promega) according to the manufacturer's protocol and by microscopy imaging. For imaging, cells were fixed to the plates and permeabilized with a solution of 10% PFA, 0.3% TX-100 in PBS via a WellMate dispenser with controlled dispensing speeds. Cell nuclei were stained with Hoechst 33342 (H3570, Invitrogen), and all necessary washing steps were performed by a BioTek washer.
(§4) An automated image analysis pipeline was established using custom-made scripts in the open-source, statistical programming language R, and functions of the BioConductor package EBImage. The goal was to quantify the number of viable nuclei (cells) per well as an approximation for cell viability. The pipeline was comprised of seven steps: (I.) smoothing of the image to reduce the number of intensity peaks, (II.) application of a thresholding function to separate the foreground (signal) from the background (noise), (III.) identification of local maxima in the foreground that serve as seeds for the nuclei, (IV.) filtering of local maxima in close proximity, (V.) propagation of the nuclei from remaining local maxima, (VI.) and extraction of object features from the propagated nuclei (numbers of nuclei, size features and intensity features). As a last step (VII.), to exclude debris (e.g. fragmented nuclei) from counting, objects identified in DMSO- and Staurosporin-treated wells were used to obtain feature distributions for viable and fragmented nuclei, respectively. These were used to set cut-offs differentiating between viable and fragmented nuclei. The number of fragmented nuclei was subtracted from the total number of identified objects and the result was reported as final count for that well.
(§5) Data comprised triplicate measurements for each treatment (compound) condition, 42 replicates of DMSO-treated wells, and duplicates of Staurosporin-treated wells. The data was normalized to the median of the DMSO measurements and summarized by calculating the median of the triplicates. Data was imported into Chalice to calculate compound synergies.

[2] = tested on: A-375 cells expressing mutant MEK1P124L; conditions: Homo sapiens, A-375 MEK1P124L, single agent
Method: as §1, §2, §3, §4, §5

WM-266-4 cells = conditions: Homo sapiens, WM-266-4 parent, single agent
Method: as §1, §2, §3, §4, §5

A-375 cells = conditions: Homo sapiens, A-375 parent, single agent
Method: as §1, §2, §3, §4, §5

[3] = tested on: WM-266-4 cells expressing mutant MEK1C121S; conditions: Homo sapiens, WM-266-4 MEK1C121S, single agent
Method: as §1, §2, §3, §4, §5

With `COC(=O)N[C@@H](C)CNc1nccc(-c2cn(C(C)C)nc2-c2cc(Cl)cc(NS(C)(=O)=O)c2F)n1` [Compound of Formula (I)] the IC50 [1] was 0.133 µM, the IC50 [2] was 0.3 µM and the IC50 (WM-266-4 cells) was 0.003 µM. For the same molecule, the IC50 (A-375 cells) was 0.004 µM and the IC50 [3] was 0.058 µM.
